# Assay results reported in article PMC9736855, “Discovery of 3-Amino-1H-pyrazole-Based Kinase Inhibitors to Illuminate the Understudied PCTAIRE Family” (International Journal of Molecular Sciences, 2022).
# Key:
# [1] = test system: HCT116-FUCCI cells; assay: FUCCI cell cycle assay and viability assessment; type: cell-based; conditions: 1, 5, 10 µM (milciclib 1, 10 µM), 24 h
# Experimental: This technology enables the detection of cell cycle states (G1, G2/M, or S phase) on a single cell level. Additionally, a viability assessment, as described by Tjaden et. al., was performed using Hoechst33342 as a nuclear marker. […] At 10 µM of the same compound, the pyknosed nuclei rate was even higher, on average 45% (Figure 9C). An increase in cells including a pyknosed nucleus indicate apoptotic cell death, due to typical morphological changes like DNA condensation. […] Milciclib is a published CDK2 inhibitor and was used as a reference compound [55]. […] At later time points, the G2/M phase arrest was no longer detectable (Table S7). This can be explained due to the increasing amount of apoptotic cells.
# To validate the influence of the compounds on the cell cycle, a florescent ubiquitination-based cell cycle indicator (FUCCI) assay was performed as described previously. In Brief, HCT116-FUCCI cells, stably expressing the FUCCI system, introduced by the Sleeping Beauty transposon system, were seeded at a density of 1250 cells per well in a 384 well plate (Cell culture microplate, PS, f-bottom, µClear®, 781091, Greiner, Frickenhausen, Germany) in culture medium (50 µL per well) and stained additionally with 60 nM Hoechst33342 (Thermo Scientific). Fluorescence and cellular shape were measured before and after compound treatment for 72 h every 12 h using the CQ1 high-content confocal microscope (Yokogawa, Tokyo, Japan). Compounds were added directly to the cells at three different concentrations (1 µM, 5 µM and 10 µM). The following parameters were used for image acquisition: Ex 405 nm/Em 447/60 nm, 500ms, 50%; Ex 561 nm/Em 617/73 nm, 100 ms, 40%; Ex 488/Em 525/50 nm, 50 ms, 40%; Ex 640 nm/Em 685/40, 50 ms, 20 %; bright field, 300ms, 100% transmission, one centered field per well, 7 z stacks per well with 55 µm spacing. Analysis of images was performed using the CellPathfinder software (Yokogawa). The cell count was normalized against the cell count of cells treated with 0.1% DMSO. All normal gated cells were further classified in cells containing healthy, fragmented or pyknosed nuclei. […] Error bars show SEM of biological duplicates. All data can be found in Table S7.
# [2] = target: T1, CDK16/Cyclin Y (Homo sapiens, UniProt Q00536); assay: NanoBRET; type: cell-based; conditions: Figure 7, 11-point dose-response in duplicates; read-out: NanoBRET EC50 ± SEM against CDK16
# T1 construct: Full-length kinases were obtained as plasmids cloned in frame with a terminal NanoLuc-fusion; CS1810C178 (CCNY); host or cells: HEK293T
# T1 sequence (Q00536 whole entry, the tested form may be a part): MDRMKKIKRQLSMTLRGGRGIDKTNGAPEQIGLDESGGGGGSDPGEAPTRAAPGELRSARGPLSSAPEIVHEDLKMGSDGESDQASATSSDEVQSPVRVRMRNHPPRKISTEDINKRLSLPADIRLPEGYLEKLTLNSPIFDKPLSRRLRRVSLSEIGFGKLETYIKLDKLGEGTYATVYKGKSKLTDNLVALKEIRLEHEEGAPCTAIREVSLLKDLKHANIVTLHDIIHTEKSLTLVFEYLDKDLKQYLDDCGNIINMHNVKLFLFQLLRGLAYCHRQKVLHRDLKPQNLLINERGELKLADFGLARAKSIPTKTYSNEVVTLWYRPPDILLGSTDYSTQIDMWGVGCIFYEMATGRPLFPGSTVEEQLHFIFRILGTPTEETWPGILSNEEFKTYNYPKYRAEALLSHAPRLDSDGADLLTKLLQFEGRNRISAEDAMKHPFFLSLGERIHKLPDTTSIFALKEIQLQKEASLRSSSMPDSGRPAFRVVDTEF
# T1 sequence (Q8ND76 2-341 partner limits assumed): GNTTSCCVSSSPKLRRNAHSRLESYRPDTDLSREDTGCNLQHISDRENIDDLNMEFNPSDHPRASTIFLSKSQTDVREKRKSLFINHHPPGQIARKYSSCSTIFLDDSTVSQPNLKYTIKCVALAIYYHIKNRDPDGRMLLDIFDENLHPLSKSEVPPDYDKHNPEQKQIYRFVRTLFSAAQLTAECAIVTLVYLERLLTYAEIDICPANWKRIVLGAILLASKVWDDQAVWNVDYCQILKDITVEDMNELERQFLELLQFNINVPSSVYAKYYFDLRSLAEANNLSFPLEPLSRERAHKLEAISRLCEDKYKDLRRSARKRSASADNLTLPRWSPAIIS
# Experimental: Next, to specifically quantify the outcome of the cellular activity of the compounds, a NanoBRET cellular target engagement assay was performed. The determination of the cellular potency on CDK16 correlated well with the corresponding DSF assay data (Figure S2). […] As mentioned before, the exchange from a methyl ester to an iso-propyl or tert-butyl ester led to a higher stabilization of the kinase in the DSF assay, which correlated with an increase in cellular potency as determined in the NanoBRET assay. […] The number of potential off-targets was low with 1 and 2 kinases with ΔTm >5 °C (Figure 4), highlighting these inhibitors for more comprehensive selectivity studied within the CDK and particular the TAIRE subfamily.
# The assay was performed as described previously. In brief: Full-length kinases were obtained as plasmids cloned in frame with a terminal NanoLuc-fusion (Promega, Madison, WI, USA), as specified in table (Table S6). Plasmids were transfected into HEK293T cells using FuGENE HD (Promega, E2312) and proteins were allowed to express for 20h. Serially diluted inhibitor and NanoBRET Kinase Tracer (Promega) at a concentration determined previously as the KD,app (Table S5) were pipetted into white 384-well plates (Greiner 781207) using an Echo acoustic dispenser (Labcyte, San Jose, CA, USA). The corresponding protein-transfected cells were added and reseeded at a density of 2.5 × 10^5 cells/mL after trypsinization and resuspending in Opti-MEM without phenol red (Life Technologies, Carlsbad, CA, USA). The system was allowed to equilibrate for 2 h at 37 °C/5% CO2 prior to BRET measurements. To measure BRET, NanoBRET NanoGlo Substrate + Extracellular NanoLuc Inhibitor (Promega, N2540) was added as per the manufacturer’s protocol, and filtered luminescence was measured on a PHERAstar plate reader (BMG Labtech, Ortenberg, Germany) equipped with a luminescence filter pair (450 nm BP filter (donor) and 610 nm LP filter (acceptor)). Competitive displacement data were then graphed using GraphPad Prism 9 software using a normalized 3-parameter curve fit with the following equation: Y = 100/(1 + 10^(X–LogEC50)).
# [3] = target: T2, CDK2 (Homo sapiens, UniProt P24941); assay: DSF; type: binding; conditions: 10 μM compound
# T2 construct: purchased in-house DSF panel (SGC Frankfurt)
# Text: (§1) To investigate the selectivity profile of the different series, a differential scanning fluorimetry (DSF) assay was used. This assay offers a rapid and sensitive screening method that determines the denaturation temperature of a protein in absence and presence of a compound. This assay format measures the fluorescence of a dye, which depends on the folding state of the protein. The difference between the melting temperature (ΔTm) in the absence and presence of the compound represents the binding strength to the protein.
# (§2) Measurements were performed in duplicates.
# [4] = target: T3, CDK16 (Homo sapiens, UniProt Q00536); assay: DSF; type: binding; conditions: 10 μM compound
# T3 construct: purchased in-house DSF panel (SGC Frankfurt)
# T3 sequence (Q00536 163-478): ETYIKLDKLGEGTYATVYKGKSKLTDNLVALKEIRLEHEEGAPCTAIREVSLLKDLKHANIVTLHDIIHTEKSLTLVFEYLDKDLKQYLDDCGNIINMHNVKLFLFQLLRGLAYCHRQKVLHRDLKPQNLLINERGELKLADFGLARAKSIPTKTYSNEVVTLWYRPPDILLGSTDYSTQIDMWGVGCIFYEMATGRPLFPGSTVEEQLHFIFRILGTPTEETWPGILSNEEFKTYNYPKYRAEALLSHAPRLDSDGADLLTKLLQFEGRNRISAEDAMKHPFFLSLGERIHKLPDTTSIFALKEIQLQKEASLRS
# Text: as §1, §2
# [5] = target: GSK3B (Homo sapiens, UniProt P49841); assay: DSF; type: binding; set-up: purchased in-house DSF panel (SGC Frankfurt); conditions: 10 μM compound
# Sequence of GSK3B (P49841 35-386): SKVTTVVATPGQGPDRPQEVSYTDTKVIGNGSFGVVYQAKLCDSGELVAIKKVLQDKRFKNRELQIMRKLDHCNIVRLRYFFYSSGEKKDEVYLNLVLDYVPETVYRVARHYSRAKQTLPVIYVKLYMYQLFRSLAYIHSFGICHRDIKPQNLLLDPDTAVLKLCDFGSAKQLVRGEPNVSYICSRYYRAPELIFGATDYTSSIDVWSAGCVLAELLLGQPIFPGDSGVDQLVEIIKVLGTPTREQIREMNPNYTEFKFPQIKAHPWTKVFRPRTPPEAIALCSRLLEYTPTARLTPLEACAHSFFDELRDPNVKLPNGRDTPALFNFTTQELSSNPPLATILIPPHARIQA
# Text: as §1, §2
Structure (SMILES),effect on the cell cycle (FUCCI) [1],EC50 [2],ΔTm at 10 µM [3],ΔTm at 10 µM [4],ΔTm at 10 µM [5]
"CNC(=O)c1nn(C)c2c1C(C)(C)Cc1cnc(Nc3ccc(N4CCN(C)CC4)cc3)nc1-2 [Milciclib, reference compound]",G1 cell cycle arrest,,,,
"CC(C)(C)OC(=O)NCCCCCNc1nccc(Nc2cc(C(C)(C)C)n[nH]2)n1 [40b, tert-butyl (5-((4-((3-(tert-butyl)-1H-pyrazol-5-yl)amino)pyrimidin-2-yl)amino)pentyl)-carbamate]",,504 ± 9.3 nM,4.3 ± 0.1 °C,5.1 ± 0.1 °C,4.9 ± 0.1 °C
"CC(C)(C)OC(=O)NCc1ccc(CNc2nccc(Nc3cc(C4CC4)n[nH]3)n2)cc1 [11f, tert-butyl 4-(((4-((3-cyclopropyl-1H-pyrazol-5-yl)amino)pyrimidin-2-yl)amino)methyl)-benzylcarbamate]",,110 ± 9.7 nM,8.4 ± 0.1 °C,7.6 ± 0.2 °C,6.3 ± 0.1 °C
"COC(=O)c1cc(Nc2nc(NCCCCCNC(=O)OC(C)(C)C)ncc2Cl)[nH]n1 [22c, methyl 5-((2-((5-((tert-butoxycarbonyl)amino)pentyl)amino)-5-chloropyrimidin-4-yl)amino)-1H-pyrazole-3-carboxylate]",,8320 ± 227 nM,1.5 ± 0.1 °C,1 ± 0.1 °C,4.8 ± 0.2 °C
"Cc1cc(Nc2ccnc(Nc3ccc(CCNC(=O)OC(C)(C)C)cc3)n2)[nH]n1 [38a, tert-butyl 4-((4-((3-methyl-1H-pyrazol-5-yl)amino)pyrimidin-2-yl)amino)phenethyl-carbamate]",,388 ± 32 nM,10.7 ± 0.1 °C,5.7 ± 0.2 °C,10.4 ± 0.1 °C
"CC(C)(C)OC(=O)NCCc1ccc(Nc2nccc(Nc3cc(C(C)(C)C)n[nH]3)n2)cc1 [40a, tert-butyl 4-((4-((3-(tert-butyl)-1H-pyrazol-5-yl)amino)pyrimidin-2-yl)amino)phenethyl-carbamate]",,1130 ± 20.5 nM,5.8 ± 0.1 °C,4.4 ± 0.1 °C,5.7 °C
"COC(=O)c1cc(Nc2nc(Nc3cccc(CCNC(=O)OC(C)(C)C)c3)ncc2Cl)[nH]n1 [22b, methyl 5-((2-((3-(2-((tert-butoxycarbonyl)amino)ethyl)phenyl)amino)-5-chloropyrimidin-4-yl)amino)-1H-pyrazole-3-carboxylate]",,3190 ± 589 nM,2.1 ± 0.1 °C,0.8 ± 0.1 °C,3.9 ± 0.6 °C
"Cc1cnc(NCCOCCNC(=O)OC(C)(C)C)nc1Nc1cc(C2CC2)n[nH]1 [12d, tert-butyl (2-(2-((4-((3-cyclopropyl-1H-pyrazol-5-yl)amino)-5-methylpyrimidin-2-yl)amino)ethoxy)ethyl)carbamate]",,619 ± 32 nM,5.3 °C,5.8 ± 0.1 °C,6.6 °C
"CNC(=O)c1cc(Nc2ccnc(Nc3ccc(CCNC(=O)OC(C)(C)C)cc3)n2)[nH]n1 [41a, tert-butyl 4-((4-((3-(methylcarbamoyl)-1H-pyrazol-5-yl)amino)pyrimidin-2-yl)amino)-phenethylcarbamate]",,4160 ± 274 nM,1.2 ± 0.2 °C,0.9 °C,2.9 °C
"COC(=O)c1cc(Nc2nc(Nc3ccc(CCNC(=O)OC(C)(C)C)cc3)nc3ccccc23)[nH]n1 [23a, methyl 5-((2-((4-(2-((tert-butoxycarbonyl)amino)ethyl)phenyl)amino)quinazolin-4-yl)amino)-1H-pyrazole-3-carboxylate]",,9360 ± 1020 nM,-0.1 ± 0.1 °C,3.4 ± 0.6 °C,1 ± 0.1 °C
"COC(=O)c1cc(Nc2nc(NCCCCCNC(=O)OC(C)(C)C)nc3ccccc23)[nH]n1 [23c, methyl 5-((2-((5-((tert-butoxycarbonyl)amino)pentyl)amino)quinazolin-4-yl)amino)-1H-pyrazole-3-carboxylate]",,4600 ± 385 nM,1.3 ± 0.5 °C,3.4 ± 0.1 °C,4.2 °C
"Cc1cnc(NCCCCCCNC(=O)OC(C)(C)C)nc1Nc1cc(C2CC2)n[nH]1 [12e, tert-butyl (6-((4-((3-cyclopropyl-1H-pyrazol-5-yl)amino)-5-methylpyrimidin-2-yl)amino)hexyl)carbamate]",,191 ± 5.9 nM,8.1 ± 0.4 °C,6.3 °C,5.8 ± 0.2 °C
"CC(C)(C)OC(=O)NCCc1ccc(Nc2ncc(Cl)c(Nc3cc(C4CC4)n[nH]3)n2)cc1 [13a, tert-butyl 4-((5-chloro-4-((3-cyclopropyl-1H-pyrazol-5-yl)amino)pyrimidin-2-yl)amino)phenethylcarbamate]",,354 ± 60.5 nM,5.9 °C,3.2 °C,4.6 °C
"Cc1cc(Nc2ccnc(NCCCCCNC(=O)OC(C)(C)C)n2)[nH]n1 [38b, tert-butyl (5-((4-((3-methyl-1H-pyrazol-5-yl)amino)pyrimidin-2-yl)amino)pentyl)-carbamate]",,253 ± 19.2 nM,4.7 ± 0.1 °C,5.8 ± 0.2 °C,4.6 ± 0.1 °C
"CNC(=O)c1cc(Nc2ccnc(Nc3ccc(CC#N)cc3)n2)[nH]n1 [41c, 5-((2-((4-(cyanomethyl)phenyl)amino)pyrimidin-4-yl)amino)-N-methyl-1H-pyrazole-3-carboxamide]",,5550 ± 636 nM,2.7 ± 0.2 °C,1.4 ± 0.4 °C,9.3 ± 0.1 °C
"CC(C)(C)c1cc(Nc2ccnc(Nc3ccc(CC#N)cc3)n2)[nH]n1 [40c, 2-(4-((4-((3-(tert-butyl)-1H-pyrazol-5-yl)amino)pyrimidin-2-yl)amino)phenyl)acetonitrile]",,351 ± 34.1 nM,10.7 ± 0.1 °C,5.7 ± 0.1 °C,10.4 °C
"CC(C)(C)OC(=O)NCCc1ccc(Nc2nccc(Nc3cc(C4CC4)n[nH]3)n2)cc1 [11a, tert-butyl 4-((4-((3-cyclopropyl-1H-pyrazol-5-yl)amino)pyrimidin-2-yl)amino)phenethyl-carbamate]",,35 nM,12.3 °C,8.7 °C,8.2 ± 0.1 °C
